Laboratory results from patent US8961930B2, “Isatin derivatives for use as in vivo imaging agents” (Imperial Innovations Limited, priority 2008, dated 2015).

Tests used:
Format in all cases: biochemical
caspase 8 = molecular target: T1, caspase 8 (Homo sapiens, UniProt Q14790); assay: Fluorimetric in vitro caspase inhibition assay (7-AMC), caspase 8; conditions: recombinant human caspase 8, 10 μM Ac-IETD-AMC; read-out: Caspase EC50 (nM), 1/6/8: caspase 8
T1 construct: purchased Biomol International, UK
T1 sequence (Q14790 217-374 limits assumed): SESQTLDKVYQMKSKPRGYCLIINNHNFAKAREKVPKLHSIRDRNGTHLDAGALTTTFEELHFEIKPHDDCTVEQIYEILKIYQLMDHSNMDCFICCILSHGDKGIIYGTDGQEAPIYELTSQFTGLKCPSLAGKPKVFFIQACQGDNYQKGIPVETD
T1 sequence (Q14790 385-479 limits assumed): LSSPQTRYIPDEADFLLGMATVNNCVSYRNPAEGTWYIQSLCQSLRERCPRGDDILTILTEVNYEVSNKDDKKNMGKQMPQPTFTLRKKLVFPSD
Protocol: (§1) Recombinant human caspases-1, -3, -6, -7, and -8 and their peptide-specific substrates were purchased from Biomol International, UK Inhibition of the recombinant caspases by non-radioactive isatins was assessed using a fluorometric assay that measures the accumulation of a fluorogenic product, 7-amino-4-methylcoumarin (7-AMC). All assays were performed in 96-well plates at a volume of 200 μl per well. The assays were performed at 37° C. in an appropriate reaction buffer as described below for each caspase. For caspase 1, the buffer comprised of 0.1% CHAPS, 100 mM NaCl, 5 mM 2-mercaptoethanol, 100 mM HEPES (pH 7.4), 2 mM EDTA, 10% sucrose, and 10 μM of the peptide substrate Ac-YVAD-AMC. For caspase 3: 20 mM HEPES (pH 7.4), 10% sucrose, 100 mM NaCl, 0.1% CHAPS, 2 m, mM EDTA, and 10 μM Ac-DEVD-AMC. For caspase 6: 20 mM HEPES (pH 7.4), 10% sucrose, 100 mM NaCl, 0.1% CHAPS, 2 mM EDTA, and 10 μM Ac-VEID-AMC. For caspase 7: 20 mM HEPES (pH 7.4), 10% sucrose, 5 mM 2-mercaptoethanol, 100 mM NaCl, 0.1% CHAPS, 2 mM EDTA, 10 μM Ac-DEVD-AMC. For caspase 8: 20 mM HEPES (pH 7.4), 10% sucrose, 100 mM NaCl, 0.1% CHAPS, 2 mM EDTA, and 10 μM Ac-IETD-AMC. The Buffers contained non-radioactive isatins in DMSO at a final concentration of 500, 50, 5 μM; 500, 50, 5 nM; 500, 50, 5 pM; the final concentration of DMSO in all wells was 5% of the total volume. Recombinant caspases were used at 0.5 units per assay (˜500 pmol substrate converted per h). All reagents except the peptide substrate were pre-incubated for 10 min. The peptide substrate (final concentration 10 μM) was then added and the plate was incubated for a further 30 min; 30 min was selected after initial linearity study where reaction was assessed after 10, 30, 60 or 90 min. The 30 min time point was selected. Respective control wells contained all reaction components without enzyme. The amount of 7-AMC produced was measured on a fluorescence microplate reader (Victor2; Perkin-Elmer Life sciences) at excitation and emission wavelengths of 355 nm and 460 nm, respectively. The concentration of isatin that inhibits the caspase activity by 50% (EC50) was estimated by non-linear regression analysis using GraphPad Prism (Version 4.0 for Windows, GraphPad Software, San Diego Calif. USA). All the isatins were analyzed in duplicate; the assays were repeated once. Known compounds 13-16 were included as reference compounds.
(§2) The data are the average for two runs, each of which was duplicated, at nine concentrations ranging from 5 pM to 500 μM; the drug concentration required to inhibit each enzyme by 50% (EC50) was obtained from nonlinear regression analysis of the inhibition profiles.

caspase 7 = molecular target: T2, caspase 7 (Homo sapiens, UniProt P55210); assay: Fluorimetric in vitro caspase inhibition assay (7-AMC), caspase 7; conditions: recombinant human caspase 7, 10 μM Ac-DEVD-AMC
T2 construct: purchased Biomol International, UK
T2 sequence (P55210 24-198 limits assumed): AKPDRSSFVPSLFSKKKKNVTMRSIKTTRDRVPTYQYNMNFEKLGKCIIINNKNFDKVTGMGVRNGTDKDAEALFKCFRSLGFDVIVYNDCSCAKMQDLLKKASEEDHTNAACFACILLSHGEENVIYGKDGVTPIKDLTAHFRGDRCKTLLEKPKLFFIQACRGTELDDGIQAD
T2 sequence (P55210 207-303 limits assumed): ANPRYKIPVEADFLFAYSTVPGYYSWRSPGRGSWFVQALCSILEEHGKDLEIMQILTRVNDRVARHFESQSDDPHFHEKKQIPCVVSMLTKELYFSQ
Protocol: as §1, §2

caspase 6 = molecular target: T3, caspase 6 (Homo sapiens, UniProt P55212); assay: Fluorimetric in vitro caspase inhibition assay (7-AMC), caspase 6; conditions: recombinant human caspase 6, 10 μM Ac-VEID-AMC; read-out: Caspase EC50 (nM), 1/6/8: caspase 6
T3 construct: purchased Biomol International, UK
T3 sequence (P55212 24-179 limits assumed): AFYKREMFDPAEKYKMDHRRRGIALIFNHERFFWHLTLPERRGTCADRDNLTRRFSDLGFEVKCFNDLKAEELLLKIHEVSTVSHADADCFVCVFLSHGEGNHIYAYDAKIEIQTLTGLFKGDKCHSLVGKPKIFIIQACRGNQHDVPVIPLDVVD
T3 sequence (P55212 194-293 limits assumed): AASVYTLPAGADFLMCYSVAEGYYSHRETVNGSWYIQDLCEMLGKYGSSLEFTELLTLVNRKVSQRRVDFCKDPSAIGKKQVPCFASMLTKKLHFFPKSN
Protocol: as §1, §2

caspase 1 = molecular target: T4, caspase 1 (Homo sapiens, UniProt P29466); assay: Fluorimetric in vitro caspase inhibition assay (7-AMC), caspase 1; conditions: recombinant human caspase 1, 10 μM Ac-YVAD-AMC; read-out: Caspase EC50 (nM), 1/6/8: caspase 1
T4 construct: purchased Biomol International, UK
T4 sequence (P29466 120-297 limits assumed): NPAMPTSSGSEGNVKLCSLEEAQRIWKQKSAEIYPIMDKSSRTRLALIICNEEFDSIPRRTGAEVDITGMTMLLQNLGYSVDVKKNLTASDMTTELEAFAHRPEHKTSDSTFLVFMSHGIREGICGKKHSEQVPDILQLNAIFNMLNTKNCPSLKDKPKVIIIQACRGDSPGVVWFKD
T4 sequence (P29466 317-404 limits assumed): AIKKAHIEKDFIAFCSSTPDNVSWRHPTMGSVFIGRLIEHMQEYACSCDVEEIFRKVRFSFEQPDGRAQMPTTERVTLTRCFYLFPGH
Protocol: as §1, §2

**Q.** For `O=C1C(=O)N(Cc2cn(CCF)nn2)c2ccc(S(=O)(=O)N3CCC[C@H]3COc3ccccc3)cc21` [Compound 10, (S)-1-((1-(2-Fluoroethyl)-1H-[1,2,3]-triazol-4-yl)methyl)-5-(2-phenoxymethyl-pyrrolidine-1-sulfonyl)isatin], which EC50 (caspase 8) is on record?
**A.** > 5000 nM

**Q.** And the EC50 (caspase 7)?
**A.** 28.2 nM

**Q.** What about the EC50 (caspase 6) of the same molecule?
**A.** > 5000 nM

**Q.** What about the EC50 (caspase 1) of the same molecule?
**A.** > 5000 nM

**Q.** Which results are given for `O=C1C(=O)N(Cc2ccc(F)cc2)c2ccc(S(=O)(=O)N3CCC[C@H]3COc3cccc(F)c3)cc21` [Compound 1, (S)-1-(4-Fluorobenzyl)-5-(2-(3-fluorophenoxymethyl)-pyrrolidine-1-sulfonyl)isatin]?
**A.** EC50 (caspase 8): > 5000 nM; EC50 (caspase 7): 13.5 nM; EC50 (caspase 6): > 5000 nM; EC50 (caspase 1): > 5000 nM

**Q.** For `O=C1C(=O)N(Cc2ccc(F)cc2)c2ccc(S(=O)(=O)N3CCC[C@H]3COc3ccc(F)cc3)cc21` [Compound 22, (S)-1-(4-Fluorobenzyl)-5-(2-(4-fluorophenoxymethyl)-pyrrolidine-1-sulfonyl)isatin], which EC50 (caspase 8) is on record?
**A.** > 5000 nM

**Q.** And the EC50 (caspase 7)?
**A.** 8 nM

**Q.** What about the EC50 (caspase 6) of the same molecule?
**A.** > 5000 nM

**Q.** What about the EC50 (caspase 1) of the same molecule?
**A.** > 5000 nM

**Q.** Which results are given for `O=C1C(=O)N(Cc2ccc(F)cc2)c2ccc(S(=O)(=O)N3CCC[C@H]3COc3ccccc3)cc21` [Compound 15, (S)-1-(4-fluorobenzyl)-5-(2-phenoxymethyl-pyrrolidine-1-sulfonyl)isatin, reference compound]?
**A.** EC50 (caspase 8): > 5000 nM; EC50 (caspase 7): 19.8 nM; EC50 (caspase 6): > 5000 nM; EC50 (caspase 1): > 5000 nM

**Q.** What does the source list for `O=C1C(=O)N(Cc2ccc(F)cc2)c2ccc(S(=O)(=O)N3CCC[C@H]3COc3ccncn3)cc21` [Compound 5, (S)-1-(4-Fluorobenzyl)-5-(2-(pyrimidin-4-yloxymethyl)-pyrrolidine-1-sulfonyl)isatin]?
**A.** EC50 (caspase 8): > 5000 nM; EC50 (caspase 7): 2.3 nM; EC50 (caspase 6): > 5000 nM; EC50 (caspase 1): > 5000 nM

**Q.** With `O=C1C(=O)N(Cc2ccccc2)c2ccc(S(=O)(=O)N3CCC[C@H]3COc3ccccc3)cc21` [Compound 13, (S)-1-benzyl-5-(2-phenoxymethyl-pyrrolidine-1-sulfonyl)isatin, reference compound] as the molecule, how does the EC50 (caspase 8) read?
**A.** > 5000 nM

**Q.** And the EC50 (caspase 7)?
**A.** 29.4 nM

**Q.** What about the EC50 (caspase 6) of the same molecule?
**A.** > 5000 nM

**Q.** What about the EC50 (caspase 1) of the same molecule?
**A.** > 5000 nM

**Q.** Which results are given for `O=C1C(=O)N(Cc2ccc(I)cc2)c2ccc(S(=O)(=O)N3CCC[C@H]3COc3ccccc3)cc21` [Compound 14, (S)-1-(4-iodobenzyl)-5-(2-phenoxymethyl-pyrrolidine-1-sulfonyl)isatin, reference compound]?
**A.** EC50 (caspase 8): > 5000 nM; EC50 (caspase 7): 25.3 nM; EC50 (caspase 6): > 5000 nM; EC50 (caspase 1): > 5000 nM

**Q.** For `O=C1C(=O)N(Cc2ccc(F)cc2)c2ccc(S(=O)(=O)N3CCC[C@H]3COc3ccc(F)cc3F)cc21` [Compound 2, (S)-1-(4-Fluorobenzyl)-5-(2-(2,4-difluorophenoxymethyl)-pyrrolidine-1-sulfonyl)isatin], which EC50 (caspase 8) is on record?
**A.** > 5000 nM

**Q.** What about the EC50 (caspase 7) of the same molecule?
**A.** 13 nM

**Q.** What about the EC50 (caspase 6) of the same molecule?
**A.** > 5000 nM

**Q.** And the EC50 (caspase 1)?
**A.** > 5000 nM

**Q.** For `O=C1C(=O)N(Cc2cn(CCF)nn2)c2ccc(S(=O)(=O)N3CCC[C@H]3COc3ccc(F)cc3F)cc21` [Compound 11, (S)-1-((1-(2-Fluoroethyl)-1H-[1,2,3]-triazol-4-yl)methyl)-5-(2(2,4-difluorophenoxymethyl)-pyrrolidine-1-sulfonyl)isatin], which EC50 (caspase 8) is on record?
**A.** > 5000 nM

**Q.** What about the EC50 (caspase 7) of the same molecule?
**A.** 2.2 nM

**Q.** And the EC50 (caspase 6)?
**A.** > 5000 nM

**Q.** And the EC50 (caspase 1)?
**A.** > 5000 nM

**Q.** For `O=C1C(=O)N(Cc2ccc(F)cc2)c2ccc(S(=O)(=O)N3CCC[C@H]3COC3CCOCC3)cc21` [Compound 4, (S)-1-(4-Fluorobenzyl)-5-(2-(tetrahydro-2H-pyran-4-yloxymethyl)-pyrrolidine-1-sulfonyl)isatin], which EC50 (caspase 8) is on record?
**A.** > 5000 nM

**Q.** And the EC50 (caspase 7)?
**A.** 14.4 nM

**Q.** And the EC50 (caspase 6)?
**A.** > 5000 nM

**Q.** And the EC50 (caspase 1)?
**A.** > 5000 nM

**Q.** With `C#CCN1C(=O)C(=O)c2cc(S(=O)(=O)N3CCC[C@H]3COc3ccc(F)cc3F)ccc21` [Compound 25, (S)-1-(2-Propynyl)-5-(2-(2,4-difluorophenoxymethyl)-pyrrolidine-1-sulfonyl)isatin] as the molecule, how does the EC50 (caspase 8) read?
**A.** > 5000 nM

**Q.** And the EC50 (caspase 7)?
**A.** 60.4 nM

**Q.** And the EC50 (caspase 6)?
**A.** > 5000 nM

**Q.** And the EC50 (caspase 1)?
**A.** > 5000 nM

**Q.** Which results are given for `O=C1C(=O)N(Cc2ccc(F)cc2)c2ccc(S(=O)(=O)N3CCCC3)cc21` [Compound 16, 1-(4-Fluorobenzyl)-5-(pyrrolidine-1-sulfonyl)isatin, reference compound]?
**A.** EC50 (caspase 8): > 5000 nM; EC50 (caspase 7): 78.6 nM; EC50 (caspase 6): > 5000 nM; EC50 (caspase 1): > 5000 nM
